# Measured values from patent US12172957B2, “Attractant composition for the species Delottococcus aberiae, methods for the monitoring, detection and/or control of the pest” (Ecologia y Proteccion Agricola, S.L., priority 2018, dated 2024).
# Several values for one entry are separate records, joined by “and”; a condition that tells them apart may be missing. Equal entries are not always repeated.
# Experiments:
# [1] = system: male Delottococcus aberiae; assay: Choice test in glass Petri dish: response of males to the compound vs. pentane control, laboratory conditions; assay type: in vivo; conditions: 10 μl on 1 cm^2 filter paper vs. pentane negative control; 10 min; χ2 test P<0.05; FIG. 2
# Experimental: The response of male Delottococcus aberiae to (4,5,5-trimethyl-3-methylenecyclopent-1-en-1-yl)methyl acetate was evaluated in the Centro de Ecologia Quimica Agricola (UPV, Valencia) by means of a test on the activity in a glass Petri dish. The tests were performed with light and under the same breeding conditions, at 23±2° C. and 60-70% relative humidity.
# For these tests, males from breeding were also used, separated on Petri dishes right when the cottony cocoon begins to form. After pupating and finally emerging from the cocoon, the insects are observed under a binocular scope to confirm their state before being selected for the test.
# The method used is described below: for each test, there were placed at opposite ends of the Petri dish a sample of (4,5,5-trimethyl-3-methylenecyclopent-1-en-1-yl)methyl acetate and a negative control (solvent pentane without activity), arranged on 1 cm^2 filter paper in an amount of 10 μl. Immediately, groups of males are carefully deposited on the test plate with the aid of a very fine brush. Therefore, the behaviour of the individuals with respect to the sources of stimulation is recorded for 10 min. Once the test has ended, the insects are discarded, such that each insect is exposed to olfactory stimuli only once. The obtained data were analysed by means of a Chi-squared test (χ2 test, P<0.05).
# [2] = system: male Delottococcus aberiae; assay: Field tests on the attraction response: baited adhesive traps in a citrus plot; assay type: in vivo
# Experimental: The response in male Delottococcus aberiae to (4,5,5-trimethyl-3-methylenecyclopent-1-en-1-yl)methyl acetate was evaluated in two field tests performed in a citrus var. Marisol plot, located in Sagunto (Valencia), during the months of May-June 2018. In a first test, 3 blocks of 2 devices were installed, said devices being: (A) a device with carrier, without attractant substance and with a trap consisting of a white sheet with adhesive, (B) a device with carrier with bait containing 500 μg of (4,5,5-trimethyl-3-methylenecyclopent-1-en-1-yl)methyl acetate and a trap consisting of a white sheet with adhesive (95×150 mm) (in each block, the devices were located at a distance of 20 m from one another, whereas the distance between blocks was at least 30 m. The carriers loaded with (4,5,5-trimethyl-3-methylenecyclopent-1-en-1-yl)methyl acetate were septum-type carriers and were inserted in the centre of the trap.
# The captures obtained in each of the traps were checked each week and the captured individuals were taken to the laboratory to be identified and counted. Traps in the same block were rotated each week.
# The number of males captured per trap and day was compared by means of an analysis of variance (ANOVA; LSD test for comparison of the means, P<0.05), subject to transformation (In(x+1)) of the data to homogenise the variance.
# In a second test, this was performed in the same way as test 1, but device B included bait containing 100 μg of (4,5,5-trimethyl-3-methylenecyclopent-1-en-1-yl)methyl acetate.
# [3] = Analysis of the attractant content of the septum carriers after 20 days in the field (emission); assay type: physicochemical
# Experimental: Therefore, the mean emission for those 20 days is 9.45±2.13 μg/day. […] Therefore, the mean emission for those 20 days is 0.55±0.42 μg/day.
# [4] = first field test, tested load 300 μg per septa
compound,measurement,setting,value
"C=C1C=C(COC(C)=O)C(C)(C)C1C (racemic) [Pheromone, (4,5,5-trimethyl-3-methylenecyclopent-1-en-1-yl)methyl acetate]",Response of male Delottococcus aberiae in the test of choice,[1],significant attractant response
same,Male captures per trap and day,"[2]; first field test, Table 1, bait 500 μg (300 μg per septa), single traps",61.0 and 52.7 and 58.0
same,Average field captures per trap and day,"[2]; first field test, bait 500 μg (300 μg elsewhere in the source), controls 0.11, P<0.001",57.22
same,Attraction power of baited devices vs. traps without attractant,"[2]; first field test, septum bait, white adhesive trap, ANOVA, LSD P<0.05, FIG. 3",significantly higher attraction power
same,Average field captures per trap and day,"[2]; second field test, bait 100 μg, controls 0.06, P<0.036",9.14
same,Final content of the substance after 20 days,[3]; [4],109 µg
same,Mean emission for those 20 days,[3]; [4],9.45 ± 2.13 µg/day
same,Final content of the substance after 20 days,"[3]; second field test, bait 100 μg",91 µg
same,Mean emission for those 20 days,"[3]; second field test, bait 100 μg",0.55 ± 0.42 µg/day
